“And” between values parts separate entries of the source, which are not always exact repeats. Equal values may be shown once. “Also recorded” adds a separate entry of the source. Read-outs that look alike come from different tables or passages of the source.
Assays:
Ae. aegypti = test system: Ae. aegypti; parameters: method as in PMID 20540931; conditions: single oral dose of 150 μg/kg; cited from earlier work
[1] = Pharmacokinetic and drug-drug interaction studies in blood-fed mosquitoes (concentration-time courses, population PK modelling); conditions: for Ivermectin concentration in single mosquito: IVM (0.1 µg/ml) in human blood, Batch 4, individual mosquitoes, listed as IVM
[2] = Mosquito dosing experiments: ivermectin recovered from single mosquitoes directly after membrane blood feeding (LC-MS/MS); format: in vivo, Aedes aegypti
Protocol: Drug stock solutions were prepared in DMSO and added to blank human blood at a ratio of 1:1000 so that the DMSO content was less than 0.2%. The mixtures were rotated at room temperature for 30 min to ensure a uniform drug distribution (Rotator Genie, Scientific Industries, Bohemia, USA). The sugar water within the mosquito cages was replaced by tap water 24 h prior to the PK experiments. Twelve hours later, the tap water was also removed to starve the mosquitoes. On the day of the PK experiment, 25–35 starved, female mosquitoes with an age of 6–7 days post-emergence were transferred with a mouth aspirator into 2 dl paper cups that were sealed with a piece of mosquito netting. […] A petri dish (35 mm x 10 mm, BD, Franklin Lakes, USA) was filled with 2.55 ml of warm blood, sealed with a piece of Parafilm (Parafilm M sealing film, Huberlab AG, Aesch, Switzerland) stretched over the rim and turned upside down on top of the paper cup. The mosquitoes were then feeding from blood through the netting and the Parafilm membrane. The feeding was conducted in a climate chamber (HPP110, Memmert GmbH + Co.KG, Schwabach, Germany) at 26° C, 70% humidity, and 50% light intensity. The photoperiod of the climate chamber and the insectary were synchronised. After 20 min of feeding, the cups were placed on ice to immobilise the mosquitoes and separate the fully engorged ones. […]
The first aim was to evaluate the variability of the blood uptake by the mosquitoes. […] The strength of the association was assessed using a linear regression model and its correlation coefficient R^2 using GraphPad prism software 9.0.0 (San Diego, USA). […]
Mosquito extracts were analysed using a modular ultra-high-pressure liquid chromatography (UPLC) system from Shimadzu (Kyoto, Japan) connected to an API 5500 QTRAP tandem mass spectrometer (AB Sciex, Massachusetts, USA). A previously developed and validated LC-MS/MS method for the quantification of ivermectin in human plasma and blood was used for the analyses. […]

Anopheles mosquitoes = conditions: cited from earlier work
Aedes aegypti mosquitoes [3] = conditions: IVM 0.1, KCZ 5, RIF 10, RTV 10, PBO 10 μg/ml in blood; for Mosquito survival (%): 50 mosquitoes
Aedes aegypti mosquitoes [4] = experiment: Drug effect on mosquito fertility (percentage of eggs hatched); format: in vivo
Protocol: The mixtures were rotated at room temperature for 30 min to ensure a uniform drug distribution (Rotator Genie, Scientific Industries, Bohemia, USA). […] Twelve hours later, the tap water was also removed to starve the mosquitoes. […] The mosquitoes were then feeding from blood through the netting and the Parafilm membrane. […] The photoperiod of the climate chamber and the insectary were synchronised. […] The engorged mosquitoes were either directly frozen at -20°C or returned to the climate chamber for certain time periods to assess the PK. […] Blood feeding was done as described above. […] In contrast to the PK experiments, the mosquitoes had unlimited access to water because a moistened oviposition substrate was inserted into the paper cup. […] Any hatched larva was counted and transferred to a rearing tray with a plastic pipette. The fertility was calculated as the percentage of eggs hatched. […] R Foundation for Statistical Computing, http://www.R-project.org, Vienna, Austria). Normality was assessed using the Shapiro-Wilk test. For normally distributed data (mortality, fecundity), group differences were assessed with one-way ANOVA testing, and, where applicable, followed up with Tukey's test. Group differences in fertility (not normally distributed) were evaluated with Kruskal-Wallis one-way analysis of variance, and Wilcoxon rank sum testing as post-hoc.

[5] = ivermectin 0.1 μg/ml plus ritonavir 10 μg/ml in blood
[6] = non-parametric bootstrap analysis (n = 1’000)
[7] = 100 eggs laid 48-96 h post-treatment, IVM 0.1, KCZ 5, RIF 10, RTV 10, PBO 10 μg/ml in blood

CCC(C)C1OC2(CCC1C)CC1CC(CC=C(C)C(OC3CC(OC)C(OC4CC(OC)C(O)C(C)O4)C(C)O3)C(C)C=CC=C3COC4C(O)C(C)=CC(C(=O)O1)C34O)O2 (stereo not shown) [ivermectin]
Host blood concentration relative to LD50 against Ae. aegypti (Ae. aegypti): ≤ 10 % of the LD50 | zero-order elimination rate ([1]; 0.1 μg/ml ivermectin in blood, pharmacometric modelling): 5.5 pg/h | Course / extent of elimination from the mosquitoes ([1]; IVM 0.1, KCZ 5, RIF 10, PBO 10 μg/ml in blood, up to 72 h): after 72 h only traces of ivermectin were still detectable | Type of elimination kinetics in the mosquito ([1]; IVM 0.1, KCZ 5, RIF 10, RTV 10, PBO 10 μg/ml in blood): zero-order elimination; also recorded: zero-order kinetics | Ivermectin concentration in single mosquito ([1]; 0 h post feeding): 0.079 ng/mg msq (2×) and 0.077 ng/mg msq (2×) and 0.075 ng/mg msq and 0.084 ng/mg msq (2×) and 0.087 ng/mg msq and 0.089 ng/mg msq (2×) and 0.085 ng/mg msq and 0.088 ng/mg msq and 0.078 ng/mg msq (2×) and 0.083 ng/mg msq (4×) and 0.062 ng/mg msq and 0.074 ng/mg msq | Ivermectin concentration in single mosquito ([1]; 6 h post feeding): 0.100 ng/mg msq (2×) and 0.086 ng/mg msq (2×) and 0.098 ng/mg msq and 0.092 ng/mg msq (2×) and 0.079 ng/mg msq and 0.085 ng/mg msq and 0.104 ng/mg msq and 0.082 ng/mg msq and 0.094 ng/mg msq and 0.083 ng/mg msq and 0.103 ng/mg msq (2×) and 0.160 ng/mg msq and 0.148 ng/mg msq and 0.096 ng/mg msq and 0.111 ng/mg msq and 0.113 ng/mg msq | Ivermectin concentration in single mosquito ([1]; 12 h post feeding): 0.073 ng/mg msq and 0.065 ng/mg msq and 0.093 ng/mg msq (2×) and 0.095 ng/mg msq (2×) and 0.090 ng/mg msq (3×) and 0.085 ng/mg msq (2×) and 0.063 ng/mg msq and 0.087 ng/mg msq and 0.077 ng/mg msq and 0.104 ng/mg msq and 0.116 ng/mg msq and 0.103 ng/mg msq and 0.086 ng/mg msq and 0.098 ng/mg msq and 0.124 ng/mg msq | Ivermectin concentration in single mosquito ([1]; 24 h post feeding): 0.073 ng/mg msq (2×) and 0.070 ng/mg msq (2×) and 0.074 ng/mg msq and 0.068 ng/mg msq and 0.090 ng/mg msq and 0.064 ng/mg msq (3×) and 0.067 ng/mg msq and 0.078 ng/mg msq and 0.055 ng/mg msq and 0.062 ng/mg msq and 0.058 ng/mg msq and 0.072 ng/mg msq and 0.056 ng/mg msq (2×) and 0.084 ng/mg msq and 0.057 ng/mg msq | Ivermectin concentration in single mosquito ([1]; 36 h post feeding): 0.068 ng/mg msq (3×) and 0.044 ng/mg msq and 0.052 ng/mg msq and 0.090 ng/mg msq and 0.039 ng/mg msq and 0.038 ng/mg msq and 0.056 ng/mg msq and 0.053 ng/mg msq and 0.071 ng/mg msq and 0.060 ng/mg msq (2×) and 0.050 ng/mg msq and 0.036 ng/mg msq and 0.051 ng/mg msq and 0.062 ng/mg msq and 0.043 ng/mg msq and 0.037 ng/mg msq and 0.073 ng/mg msq | IOV dose (inter-occasion variability), estimate ([1]; final population PK model): 0.11 | Inter-individual variability (ω) of dose, estimate ([1]; final population PK model): 0.075 | Inter-individual variability (ω) of kel, estimate ([1]; final population PK model): 0.25 | kel (zero-order elimination rate), estimate ([1]; final population PK model, 0.1 μg/ml ivermectin in blood): 0.0055 ng/h | dose (amount absorbed from the blood meal), estimate ([1]; final population PK model, 0.1 μg/ml ivermectin in blood, median mosquito weight 3.4 mg): 0.28 ng | Amount of ivermectin imbibed per feeding, mean ± SD ([1]; human blood spiked with 0.1 μg/ml ivermectin, four batches): 0.36 ± 0.06 ng | Effect of ritonavir on the elimination rate of ivermectin [1, 5]: not affected | Increase of ivermectin exposure (AUC) compared to ivermectin alone [1, 5]: 29% | IOV dose, bootstrap median [1, 6]: 0.11 | Inter-individual variability (ω) of dose, bootstrap median [1, 6]: 0.075 | Inter-individual variability (ω) of kel, bootstrap median [1, 6]: 0.25 | Tlag, bootstrap median [1, 6]: 18.5 h | dose, bootstrap median [1, 6]: 0.28 ng | Tlag_add_rit, bootstrap median ([1]; non-parametric bootstrap analysis (n = 1’000), ritonavir co-treatment): 11.4 h | Saturation of uptake over the dose range ([2]; 0.01–1 μg/ml ivermectin in blood): no saturation was observed; also recorded: without showing saturation | Dosing precision (%CV) of ivermectin, adjusted for mosquito weight ([2]; 0.01–1 μg/ml ivermectin in blood, n = 30 mosquitoes per dose): less than 13.4% | Ivermectin concentration per mosquito weight ([2]; ivermectin dose 0.01 µg/ml in blood, directly after feeding, single mosquitoes 1-30): 0.007 ng/mg and 0.009 ng/mg and 0.008 ng/mg and 0.010 ng/mg and 0.011 ng/mg | Lethal concentration for Anopheles mosquitoes (Anopheles mosquitoes): low nanomolar range | Mosquito survival (%) (Aedes aegypti mosquitoes [3]; 0 days post feeding): 100% | Mosquito survival (%) (Aedes aegypti mosquitoes [3]; 1 day post feeding): 100% | four-day mosquito mortality (Aedes aegypti mosquitoes [3]; four days, 3 batches of 50): 17% | Mosquito fertility, Batch 1, hatching rate (Aedes aegypti mosquitoes [4]; [7]): 1% | Mosquito fertility, Batch 2, hatching rate (Aedes aegypti mosquitoes [4]; [7]): 0% | Mosquito fertility, Batch 3, hatching rate (Aedes aegypti mosquitoes [4]; [7]): 1% | Effect on fertility of mosquito eggs (Aedes aegypti mosquitoes [4]; ivermectin 0.1 μg/ml in blood): sterilised almost all mosquito eggs
